Measurements reported in US20170165283A1, “USE OF BETA-NICOTINAMIDE MONONUCLEOTIDE IN PREPARATION OF HEALTH-CARE PRODUCTS FOR PREVENTING AND TREATING ARTERIOSCLEROSIS AND CARDIO-CEREBROVASCULAR DISEASES, AND HEALTH-CARE PRODUCT CONTAINING THE SAME” (BONTAC BIO-ENGINEERING (SHENZHEN) CO., LTD, priority 2015, published 2017).

How the values were obtained:
[1] = test system: patients diagnosed as having cardio-cerebrovascular diseases resulting from arteriosclerosis; test: Clinical trial in patients with cardio-cerebrovascular diseases resulting from arteriosclerosis; format: in vivo, human; conditions: Group A: oral NMN 10 mg/kg body weight every day; for Total effective rate: excluding the withdrawing patients
Protocol: 200 patients (male:female 1:1, aged 35-76 years and 55 years on average, and having a course of disease of the shortest 2 years, the longest 7 years, and 4.8 years on average) diagnosed as having cardio-cerebrovascular diseases resulting from arteriosclerosis were selected at random as subjects for clinical observation. The patients were assigned to a group A and a group B at random, each group having 100 patients.
Group A: The patients were orally administered with NMN at a dosage of 10 mg/kg body weight before or after meals every day, and the diet was controlled as desired.
Group B: The patients were orally administered with NMN at a dosage of 10 mg/kg body weight and with NR at a dosage of 2 mg/kg body weight before or after meals every day, and the diet was controlled as desired.
(1) Obvious effectiveness: The health is built up, the body is powerful, the blood lipid and blood pressure drop to normal levels, the palpitation, chest pain, chest tightness, headache, dizziness, decreased vision, decreased memory, insomnia and dreamful sleep, and other clinical symptoms are obvious alleviated.
(2) Effectiveness: The health is built up, the blood lipid and blood pressure drop slightly, the palpitation, chest pain, chest tightness, headache, dizziness, decreased vision, decreased memory, insomnia and dreamful sleep, and other clinical symptoms are alleviated to some extent.
(3) Ineffectiveness: There is no obvious improvement in the clinical symptoms.

[2] = test system: guinea pigs fed on high-fat diet (arteriosclerosis, lesion of the aorta); test: Aortic lesion area (Sudan IV staining) in guinea pigs fed on high-fat diet; format: in vivo; conditions: end of week 7, x±s
Protocol: 70 SPF healthy guinea pigs (female:male 1:1) having a body weight of 250-300 g, were assigned to 7 groups at random, each group having 10 animals. The groups include (1) a normal control group, fed on basal diet, and allowed to free access to water during experiment;
(2) a high fat control group, fed on high-fat diet, and allowed to free access to water during experiment;
(3) a high fat prevention group, fed on high-fat diet, dosed with 50 mg NMN/kg body weight every day by gavage, and allowed to free access to water during experiment;
(4) a low-dose NMN group, fed on high-fat diet, dosed with 0.5 mg NMN/kg body weight every day by gavage from week 6, and allowed to free access to water during experiment;
(5) a medium-dose NMN group, fed on high-fat diet, dosed with 50 mg NMN/kg body weight every day by gavage from week 6, and allowed to free access to water during experiment;
(6) a high-dose NMN group, fed on high-fat diet, dosed with 100 mg NMN/kg body weight every day by gavage from week 6, and allowed to free access to water during experiment; and (7) a NMN+NR group, fed on high-fat diet, dosed with 50 mg NMN/kg body weight and 5 mg NR/kg body weight every day by gavage from week 6, and allowed to free access to water during experiment.
The formulation of the high-fat diet includes 75% basal diet, 5% cholesterol, and 20% lard oil.
At the end of week 7, all the experimental animals was fasted (allowed to access to water) for 12 hrs and then sacrificed. The aorta was isolated, dissected longitudinally along the midline of the anterior wall, and stained with Sudan IV. […] The lesion area pathologically measured and the total endangium area were quantified, and the degree of arteriosclerosis was expressed by percentages of the lesion area relative to the total endangium area of the aorta.
Statistical analysis: All the experimental data is analyzed by SPSS13.0 Statistics software. The measurement data is expressed as x±s, and t test is applied to check the statistical significance. Where P <0.05, there is statistical significance.

Structure (SMILES): NC(=O)c1ccc[n+]([C@@H]2O[C@H](COP(=O)([O-])O)[C@@H](O)[C@H]2O)c1 [NMN, β-nicotinamide mononucleotide]
- Time after administration at which patients with mild disease are cured [1]: 7 days
- Patients showing obvious effectiveness ([1]; after 1 month): 67 out of 100 patients
- Patients showing effectiveness ([1]; after 1 month, 100 patients): 28 patients
- Patients showing ineffectiveness ([1]; after 1 month, 100 patients): 4 patients
- Total effective rate ([1]; after 1 month): 96%
- Total effective rate ([1]; after 1 month, listed as β-nicotinamide mononucleotide): up to 96%
- Rate of lesion area of aorta (%) ([2]; high fat prevention group: high-fat diet, 50 mg NMN/kg body weight every day by gavage, n=10): 4 ± 1%
- Rate of lesion area of aorta (%) ([2]; high-dose group: high-fat diet, 100 mg NMN/kg body weight every day by gavage from week 6): 12 ± 3%
- Rate of lesion area of aorta (%) ([2]; low-dose group: high-fat diet, 0.5 mg NMN/kg body weight every day by gavage from week 6): 59 ± 4%
- Rate of lesion area of aorta (%) ([2]; medium-dose group: high-fat diet, 50 mg NMN/kg body weight every day by gavage from week 6): 23 ± 2%
